Experimental data as given in paper PMC7663003 (2020).

Assays:
Assay in all cases: fluorescence titration
[1] = system: 22AG (DNA, G4) AGGGTTAGGGTTAGGGTTAGGG; details: 2.5 mM Mg2+, 3 μM dye, apparent
[2] = system: 26Tel (DNA, G4) TTAGGGTTAGGGTTAGGGTTAGGGTT; details: 2.5 mM Mg2+, 3 μM dye, apparent
[3] = system: 27Myc (DNA, G4) TGGGGAGGGTGGGGAGGGTGGGGAAGG; details: 140 mM K+, 10 mM Na+, 2.5 mM Mg2+; PBS140KM (phosphate) pH 7.4, 25 °C; 3 μM dye; apparent
[4] = system: 22Kit (DNA, G4) AGGGAGGGCGCTGGGAGGAGGG; details: 140 mM K+, 10 mM Na+, 2.5 mM Mg2+; PBS140KM (phosphate) pH 7.4, 25 °C; 3 μM dye; apparent
[5] = system: 18Ras (RNA, G4) GGGAGGGGCGGGUCUGGG; details: 140 mM K+, 10 mM Na+, 2.5 mM Mg2+; PBS140KM (phosphate) pH 7.4, 25 °C; 3 μM dye; apparent
[6] = system: 26Tel (DNA, G4) TTAGGGTTAGGGTTAGGGTTAGGGTT; details: 153 mM Na+, 2.7 mM K+, 2.5 mM Mg2+, pH 7.4, 25 °C, dye 3 μM, apparent
[7] = system: 27Myc (DNA, G4) TGGGGAGGGTGGGGAGGGTGGGGAAGG; details: 153 mM Na+, 2.7 mM K+, 2.5 mM Mg2+, pH 7.4, 25 °C, dye 3 μM, apparent
[8] = system: 22Kit (DNA, G4) AGGGAGGGCGCTGGGAGGAGGG; details: 153 mM Na+, 2.7 mM K+, 2.5 mM Mg2+, pH 7.4, 25 °C, dye 3 μM, apparent
[9] = system: 20Src (DNA, G4) GGGCGGCGGGCTGGGCGGGG; details: 2.5 mM Mg2+, pH 7.4, 25 °C, dye 3 μM, oligonucleotide to 15 μM, apparent, n.d., assumed
[10] = system: 18Ras (RNA, G4) GGGAGGGGCGGGUCUGGG; details: 2.5 mM Mg2+, pH 7.4, 25 °C, dye 3 μM, apparent
[11] = system: dsDNA (DNA, duplex) GGGTTACTACGAACTGG/CCAGTTCGTAGTAACCC; details: 153 mM Na+, 2.7 mM K+, 2.5 mM Mg2+, pH 7.4, 25 °C, dye 3 μM, apparent
[12] = system: 22AG (DNA, G4) AGGGTTAGGGTTAGGGTTAGGG; details: 2.5 mM Mg2+, pH 7.4, 25 °C, dye 3 μM, apparent
[13] = system: 20Src (DNA, G4) GGGCGGCGGGCTGGGCGGGG; details: 2.5 mM Mg2+, 3 μM dye, apparent
[14] = system: dsDNA (DNA, duplex) GGGTTACTACGAACTGG/CCAGTTCGTAGTAACCC; details: 140 mM K+, 10 mM Na+, 2.5 mM Mg2+; PBS140KM (phosphate) pH 7.4, 25 °C; 3 μM dye; apparent
[15] = 140 mM K+, 10 mM Na+, PBS140KM (phosphate) pH 7.4, 25 °C
[16] = 153 mM Na+, 2.7 mM K+, PBS153NM
[17] = 153 mM Na+, 2.7 mM K+, PBS153NM (phosphate)
[18] = PBS153NM, oligonucleotide to 15 μM, n.d., assumed
[19] = 140 mM K+, 10 mM Na+, PBS140KM, oligonucleotide to 15 μM, n.d., assumed
[20] = 153 mM Na+, 2.7 mM K+, PBS153NM, oligonucleotide to 15 μM, n.d., assumed
[21] = 153 mM Na+, 2.7 mM K+, PBS153NM (phosphate) pH 7.4, 25 °C

Kd [1, 15] [µM]	Kd [2, 15] [µM]	Kd [3] [µM]	Kd [4] [µM]	Kd [5] [µM]	Kd ([6]; PBS153NM (phosphate)) [µM]	Kd ([7]; PBS153NM (phosphate)) [µM]	Kd ([8]; PBS153NM (phosphate)) [µM]	Kd ([9]; 140 mM K+, 10 mM Na+, PBS140KM) [µM]	Kd [9, 16] [µM]	Kd [10, 17] [µM]	Kd [11, 18] [µM]	Kd [12, 19] [µM]	Kd [12, 17] [µM]	Kd [6, 18] [µM]	Kd [8, 18] [µM]	Kd [13, 15] [µM]	Kd [12, 20] [µM]	Compound	other results
5.0 ± 0.5	4.0 ± 0.4	6.9 ± 0.8	9.9 ± 1.2	19.0 ± 2.9	29.5 ± 5.6	13.5 ± 5.1	4.8 ± 0.8	> 40	> 40	15.3 ± 1.6	> 40	–	–	–	–	–	–	Cc1ccc2c(c1)sc(-c1ccc(N(C)C)cc1)[n+]2C	–
–	9.7 ± 5.5	–	8.9 ± 3.5	–	–	–	–	> 40	> 40	–	> 40	> 40	23.6 ± 9.1	> 40	> 40	–	–	Cc1ccc2c(c1)sc(-c1ccc(N(C)C)cc1)[n+]2CCN	Kd [7, 18]: > 40 µM; Kd [10, 19]: > 40 µM; Kd [10, 20]: > 40 µM
–	23.9 ± 3.1	13.4 ± 0.8	36.6 ± 4.4	15.3 ± 1.9	–	29.1 ± 2.5	–	–	> 40	16.3 ± 1.8	> 40	> 40	20.3 ± 9.9	> 40	> 40	20.2 ± 2.3	–	Cc1ccc2c(c1)sc(-c1ccc(N(C)C)cc1)[n+]2CCNC(=O)COCC(=O)NCCOCCOCCOCCOCCOCCOCCOCCOCCOCCOCCOCCN	–
11.8 ± 1.4	5.3 ± 0.4	8.7 ± 0.7	20.5 ± 1.4	11.8 ± 0.6	34.3 ± 4.0	10.8 ± 1.3	–	–	> 40	15.5 ± 1.7	> 40	–	–	–	> 40	38.6 ± 5.9	> 40	Cc1ccc2c(c1)sc(-c1ccc(N(C)C)cc1)[n+]2CCNC(=O)COCCOCCN	–
5.4 ± 1.0	2.4 ± 0.4	6.8 ± 0.9	6.8 ± 0.6	12.8 ± 1.9	–	5.3 ± 0.8	7.4 ± 3.9	–	–	14.7 ± 3.2	–	–	–	–	–	18.8 ± 2.4	–	Cc1ccc2c(c1)sc(-c1ccc(N(C)C)cc1)[n+]2CCNC(=O)NCCCNCCCCNCCCN	Kd [1, 21]: 8.2 ± 0.8 µM; Kd [2, 21]: 4.6 ± 0.3 µM; Kd [13, 21]: 4.1 ± 0.5 µM; Kd [14]: 16.0 ± 1.0 µM; Kd ([11]; PBS153NM (phosphate)): 9.4 ± 1.0 µM
20.1 ± 1.5	11.1 ± 1.5	19.9 ± 0.9	34.9 ± 6.6	25.0 ± 3.1	–	14.1 ± 1.5	12.3 ± 1.8	> 40	> 40	28.1 ± 4.0	> 40	–	–	> 40	–	–	> 40	Cc1ccc2c(c1)sc(-c1ccc(N(C)C)cc1)[n+]2CCO	–
